Data as given in patent publication US20070149525A1, “Methods of treating amyloidosis using aryl-cyclopropyl derivative aspartyl protease inhibitors” (priority 2005, published 2007).
Values joined by “and” are separate entries in the source; they are usually repeats but may differ in a detail not shown here. Equal values may be shown once.

How the values were obtained:
[1] = tested on: beta-secretase (BACE) versus cathepsin D (catD); experiment: CatD/BACE selectivity (ratio of IC50 values); format: biochemical; conditions: each value average of four experimental runs; multiple values = more than one experiment
Experimental: Investigation of potential beta-secretase inhibitors produced compounds with increased selectivity for beta-secretase over other aspartyl proteases such as cathepsin D (catD), cathepsin E (catE), Human Immunodeficiency Viral (HIV) protease, and renin. Selectivity was calculated as a ratio of inhibition (IC50) values in which the inhibition of beta-secretase was compared to the inhibition of other aspartyl proteases.
The compounds of formula (I) can be selective for beta-secretase versus catD.
In the following examples, each value is an average of four experimental runs and multiple values for one compound indicate that more than one experiment was conducted.

[2] = tested on: Madin-Darby Canine Kidney (MDCK) cells; experiment: In vitro permeability across MDCK cell monolayer; format: in vitro ADME; conditions: test compound 5 μM, 2 h at 37° C., apical to basolateral
Experimental: (§1) Compounds were evaluated for permeability across a monolayer of Madin-Darby Canine Kidney (MDCK) cells in a transwell device following culturing for 4 days. […] A 0.5 mL of cell suspension (400,000 cells/mL) was placed on membrane and a 1.5 mL media in the bottom wells on day 1. On day 2 and day 3, cells were fed with new media. […] Media was removed from upper chambers and filled with mHBSS with or without CspA, and incubated 30 min at 37° C. with light shaking. Donor chambers were emptied, and filled with test compound at 5 μM in mHBSS. […] Plates were incubated for 2 h at 37° C. with shaking. After 2 h, both the donor and receiver wells were sampled. The bottom chambers were read in a fluorometer to assess LY leakage, and then the media from all wells were assayed by LC/MS/MS to determine compound levels.

[3] = In vitro permeability across MDCK cell monolayer; format: in vitro ADME, Canine; conditions: dog, MDCK, test compound 5 μM, 2 h at 37° C., apical to basolateral, read-out: Permeability Forward A > B
Experimental: as §1

P-gp = conditions: mdr1 a/b (-/-) and FVB wild-type, mouse, not told, iv, 2.5 mg/kg, 5 min
Experimental: Use of mdr1 (−/−) mouse and its FVB wild-type littermates, which expresses P-gp at their blood-brain barrier (BBB), can distinguish between a test compound of high P-gp liability from one with a more desirable low P-gp liability.
Test compounds are administered to both the mdr1 a/b (−/−) and the FVB wild-type mice (N=4/strain) intravenously at 2.5 mg/Kg through the tail vein. Plasma and brains are harvested at 5 min post administration. Test compound is extracted from tissue in parallel with calibration curves prepared from age-matched control tissues, then quantitated by LC/MS/MS. The ratio of brain concentration (Cb) to plasma concentration (Cp) is used as a measure of brain penetration according to the following formula: Brain Penetration (P)=Cb/Cp Therefore, a measure of brain penetration in the mdr1 (−/−) mouse relative to that of the wild-type animal represents an assessment of in vivo P-gp efflux, which is analogous to that determine in vitro with MDR1-MDCK cells. Calculations are made according to the following formula: Pmdr1/PFVB=In vivo Efflux

[4] = Brain to plasma ratio in female FVB mice; format: in vivo; conditions: 100 mpk dose

CC(=O)NC(Cc1cc(F)cc(F)c1)C(O)CNC1(c2cc(O)cc(CC(C)(C)C)c2)CC1 (stereo not drawn) [Example 23.3, N-(1-(3,5-difluorophenyl)-3-hydroxy-4-(1-(3-hydroxy-5-neopentylphenyl)cyclopropylamino)butan-2-yl)acetamide]
Selectivity IC50 catD/IC50 BACE [1]: 1.5

CCC1CC1(NCC(O)C(Cc1cc(F)cc(F)c1)NC(C)=O)c1cccc(-n2cccn2)c1 (stereo not drawn) [Example 23.55, N-(4-(1-(3-(1H-pyrazol-1-yl)phenyl)-2-ethylcyclopropylamino)-1-(3,5-difluorophenyl)-3-hydroxybutan-2-yl)acetamide]
Permeability Forward A > B [2]: 14.1 ×10⁻⁶ cm/s and 9.2 ×10⁻⁶ cm/s
Papp A→B at 2 h, 5 μM [3]: 18.4 ×10⁻⁶ cm/s

CC(=O)NC(Cc1cc(F)cc(F)c1)C(O)CNC1(c2cccc(-n3cccn3)c2)CC1 (stereo not drawn) [Example 23.27, N-(4-(1-(3-(1H-pyrazol-1-yl)phenyl)cyclopropylamino)-1-(3,5-difluorophenyl)-3-hydroxybutan-2-yl)acetamide]
Permeability Forward A > B [2]: 16.35 ×10⁻⁶ cm/s

CC(=O)NC(Cc1cc(F)cc(F)c1)C(O)CNC1(c2csc(C(C)(C)C)c2)CC1 (stereo not drawn) [Example 23.6, N-(4-(1-(5-tert-butylthiophen-3-yl)cyclopropylamino)-1-(3,5-difluorophenyl)-3-hydroxybutan-2-yl)acetamide]
Selectivity IC50 catD/IC50 BACE [1]: 1.6 and 0.9

CC(=O)NC(Cc1cc(F)cc(F)c1)C(O)CNC1(c2cccc(C(C)C(F)(F)F)c2)CC1 (stereo not drawn) [Example 23.28, N-(1-(3,5-difluorophenyl)-3-hydroxy-4-(1-(3-(1,1,1-trifluoropropan-2-yl)phenyl)cyclopropylamino)butan-2-yl)acetamide]
Permeability Forward A > B [2]: 19.62 ×10⁻⁶ cm/s
Papp A→B at 2 h, 5 μM [3]: 12.6 ×10⁻⁶ cm/s

CC(=O)NC(Cc1cc(F)cc(F)c1)C(O)CNC1(c2cccc(-n3cccn3)c2)CC1 (stereo not drawn) [Example 23.18, N-(4-(1-(3-(1H-pyrazol-1-yl)phenyl)cyclopropylamino)-1-(3,5-difluorophenyl)-3-hydroxybutan-2-yl)acetamide]
Permeability Forward A > B [2]: 8.78 ×10⁻⁶ cm/s

CC(=O)NC(Cc1cc(F)cc(F)c1)C(O)CNC1(c2cccc(C(C)C(F)(F)F)c2)CC1 (stereo not drawn) [Example 23.7, N-(1-(3,5-difluorophenyl)-3-hydroxy-4-(1-(3-(1,1,1-trifluoropropan-2-yl)phenyl)cyclopropylamino)butan-2-yl)acetamide]
Selectivity IC50 catD/IC50 BACE [1]: 1.7

CC(=O)NC(Cc1cc(F)cc(F)c1)C(O)CNC1(c2cccc(C3CCCC3)c2)CC1 (stereo not drawn) [Example 23.2, N-(4-(1-(3-cyclopentylphenyl)cyclopropylamino)-1-(3,5-difluorophenyl)-3-hydroxybutan-2-yl)acetamide]
Selectivity IC50 catD/IC50 BACE [1]: 13.0

CC(=O)NC(Cc1cc(F)cc(F)c1)C(O)CNC1(c2ccn(CC(C)(C)C)n2)CC1 (stereo not drawn) [Example 23.4, N-(1-(3,5-difluorophenyl)-3-hydroxy-4-(1-(1-neopentyl-1H-pyrazol-3-yl)cyclopropylamino)butan-2-yl)acetamide]
Selectivity IC50 catD/IC50 BACE [1]: 3.5

CC(=O)NC(Cc1cc(F)cc(F)c1)C(O)CNC1(c2cccc(C3CC4CCC3C4)c2)CC1 (stereo not drawn) [Example 23.1, N-(4-(1-(3-(bicyclo[2.2.1]heptan-2-yl)phenyl)cyclopropylamino)-1-(3,5-difluorophenyl)-3-hydroxybutan-2-yl)acetamide]
Selectivity IC50 catD/IC50 BACE [1]: 3.4

CNCC[C@@H](Oc1ccccc1C)c1ccccc1 [atomoxetine]
in vivo P-gp efflux (Pmdr1/PFVB) (P-gp): 1.17

CC(=O)NC(Cc1cc(F)cc(F)c1)C(O)CNC1(c2cccc(-n3cccn3)c2)CC1 (stereo not drawn) [Example 23.12, N-(4-(1-(3-(1H-pyrazol-1-yl)phenyl)cyclopropylamino)-1-(3,5-difluorophenyl)-3-hydroxybutan-2-yl)acetamide]
Permeability Forward A > B [2]: 16.29 ×10⁻⁶ cm/s

CC(=O)NC(Cc1cc(F)cc(F)c1)C(O)CNC1(c2cnn(C(C)(C)C)c2)CC1 (stereo not drawn) [Example 23.5, N-(4-(1-(1-tert-butyl-1H-pyrazol-4-yl)cyclopropylamino)-1-(3,5-difluorophenyl)-3-hydroxybutan-2-yl)acetamide]
Selectivity IC50 catD/IC50 BACE [1]: 6.0

CC(=O)NC(Cc1cc(F)cc(F)c1)C(O)CNC1(c2cccc(N3CCSCC3)c2)CC1 (stereo not drawn) [Example 23.48, N-(1-(3,5-difluorophenyl)-3-hydroxy-4-(1-(3-thiomorpholinophenyl)cyclopropylamino)butan-2-yl)acetamide]
Papp A→B at 2 h, 5 μM [3]: 10.9 ×10⁻⁶ cm/s

CC(=O)NC(Cc1cc(F)cc(F)c1)C(O)CNC1(n2cccn2)CC1Cc1ccccc1 (single isomer, unassigned) [23.30 Diastereomer A, N-(4-(2-benzyl-1-(1H-pyrazol-1-yl)cyclopropylamino)-1-(3,5-difluorophenyl)-3-hydroxybutan-2-yl)acetamide]
Papp A→B at 2 h, 5 μM [3]: 8.48 ×10⁻⁶ cm/s

CC(=O)NC(Cc1cc(F)cc(F)c1)C(O)CNC1(c2cccc(-n3cccn3)c2)CC1 (stereo not drawn) [Example 23.11, N-(4-(1-(3-(1H-pyrazol-1-yl)phenyl)cyclopropylamino)-1-(3,5-difluorophenyl)-3-hydroxybutan-2-yl)acetamide]
Permeability Forward A > B [2]: 12.21 ×10⁻⁶ cm/s and 18.32 ×10⁻⁶ cm/s

CC(=O)NC(Cc1cc(F)cc(F)c1)C(O)CNC1(c2cccc(C(F)C(C)(C)F)c2)CC1 (stereo not drawn) [Example 23.51, N-(4-(1-(3-(1,2-difluoro-2-methylpropyl)phenyl)cyclopropylamino)-1-(3,5-difluorophenyl)-3-hydroxybutan-2-yl)acetamide]
Papp A→B at 2 h, 5 μM [3]: 12.7 ×10⁻⁶ cm/s

O=C(O)CCCC(=O)NC(Cc1cc(F)cc(F)c1)C(O)CNC1(c2cccc(-n3cccn3)c2)CC1 (stereo not drawn) [Example 23.9, 4-(4-(1-(3-(1H-pyrazol-1-yl)phenyl)cyclopropylamino)-1-(3,5-difluorophenyl)-3-hydroxybutan-2-ylcarbamoyl)butanoic acid]
Selectivity IC50 catD/IC50 BACE [1]: 2.6

CCOCC(=O)NC(Cc1cc(F)cc(F)c1)C(O)CNC1(c2cccc(-n3cccn3)c2)CC1 (stereo not drawn) [Example 23.41, N-(4-(1-(3-(1H-pyrazol-1-yl)phenyl)cyclopropylamino)-1-(3,5-difluorophenyl)-3-hydroxybutan-2-yl)-2-ethoxyacetamide]
Papp A→B at 2 h, 5 μM [3]: 9.86 ×10⁻⁶ cm/s

CC(=O)NC(Cc1cc(F)cc(F)c1)C(O)CNC1(c2cccc(-n3cccn3)c2)CC1C(C)C (stereo not drawn) [Example 23.54, N-(4-(1-(3-(1H-pyrazol-1-yl)phenyl)-2-isopropylcyclopropylamino)-1-(3,5-difluorophenyl)-3-hydroxybutan-2-yl)acetamide]
Permeability Forward A > B [2]: 14.8 ×10⁻⁶ cm/s
Papp A→B at 2 h, 5 μM [3]: 11.4 ×10⁻⁶ cm/s

O=C(Cc1ccccc1)NC(Cc1cc(F)cc(F)c1)C(O)CNC1(c2cccc(-n3cccn3)c2)CC1 (stereo not drawn) [Example 23.38, N-(4-(1-(3-(1H-pyrazol-1-yl)phenyl)cyclopropylamino)-1-(3,5-difluorophenyl)-3-hydroxybutan-2-yl)-2-phenylacetamide]
Papp A→B at 2 h, 5 μM [3]: 22.1 ×10⁻⁶ cm/s

O=C(Cc1nnn[nH]1)NC(Cc1cc(F)cc(F)c1)C(O)CNC1(c2cccc(-n3cccn3)c2)CC1 (stereo not drawn) [Example 23.8, N-(4-(1-(3-(1H-pyrazol-1-yl)phenyl)cyclopropylamino)-1-(3,5-difluorophenyl)-3-hydroxybutan-2-yl)-2-(1H-tetrazol-5-yl)acetamide]
Selectivity IC50 catD/IC50 BACE [1]: 3.3

CC(=O)NC(Cc1cc(F)cc(F)c1)C(O)CNC1(c2cccc(N3CCOCC3)c2)CC1 (stereo not drawn) [Example 23.32, N-(1-(3,5-difluorophenyl)-3-hydroxy-4-(1-(3-morpholinophenyl)cyclopropylamino)butan-2-yl)acetamide]
Papp A→B at 2 h, 5 μM [3]: 12.1 ×10⁻⁶ cm/s

CC(=O)NC(Cc1cc(F)cc(F)c1)C(O)CNC1(c2cccc(C(C)(C)C(F)F)c2)CC1 (stereo not drawn) [23.57]
Brain AUC (0-6 h) [4]: 57 µM·h
Kp ([4]; mouse, brain and plasma, 100 mg/kg, AUC (0-6 h)): 0.7
AUC(0-t) ([4]; mouse, plasma, 100 mg/kg, read-out: Plasma AUC (0-6 h)): 86 µM·h

CC(=O)NC(Cc1cc(F)cc(F)c1)C(O)CNC1(c2cncc(-n3cccn3)c2)CC1 (stereo not drawn) [Example 23.29, N-(4-(1-(5-(1H-pyrazol-1-yl)pyridin-3-yl)cyclopropylamino)-1-(3,5-difluorophenyl)-3-hydroxybutan-2-yl)acetamide]
Papp A→B at 2 h, 5 μM [3]: 8.62 ×10⁻⁶ cm/s
